Test results published in ChEMBL document CHEMBL5375947, “Discovery of Efficient Hypoxia-Targeted NO Donor Compounds to Alleviate Hypoxia Cardiac Disease” (J Med Chem, 2023).
Active and inactive are the calls of the source. No cut-off for these calls is given here.

Columns and labels:
[1] = system: H9c2; assay: Induction of NO release in rat H9c2 cells at 10 uM under normoxia condition by griess reagent based assay; assay type: functional
[2] = system: H9c2; assay: Induction of NO release in rat H9c2 cells at 10 uM under hypoxia condition by griess reagent based assay; assay type: functional
[3] = system: H9c2; assay: Induction of NO release in rat H9c2 cells under hypoxia condition by griess reagent based assay; assay type: functional, cell-based; settings: dose <= 15.0 µM
[4] = system: H9c2; assay: Induction of NO release in rat H9c2 cells at 10 uM measured upto 12 hrs under hypoxia condition by griess reagent based assay; assay type: functional, cell-based
[5] = system: H9c2; assay: Induction of NO release in rat H9c2 cells at 10 uM measured at 30 mins under hypoxia condition by griess reagent based assay; assay type: functional; settings: 0.5 h
[6] = system: H9c2; assay: Cytotoxicity against rat H9c2 cells assessed as reduction in cell viability at 0.01 to 10 uM under normoxia condition by CCK-8 assay; assay type: toxicity, cell-based; settings: h9c2, 10 µM, dose 0.01-10 µM
[7] = system: H9c2; assay: Recovery of myocardial cell viability in rat H9c2 cells at 0.01 to 10 uM under hypoxia condition by CCK-8 assay; assay type: functional, cell-based; settings: dose 0.01-10 µM
[8] = system: H9c2; assay: Recovery of myocardial cell viability in rat H9c2 cells assessed as increase in ATP level at 10 micromol/L measured per mg of protein under hypoxia condition by fluorescence based assay; assay type: functional; settings: dose 10 µmol/L
[9] = Toxicity in C57 mouse assessed as increase in body weight at 4 mg/kg, ip administered twice a day for 3 days; assay type: organism-based; settings: in vivo, 72 h, time 3 day
[10] = system: H9c2; assay: Anti-apoptotic activity in rat H9c2 cells assessed as late apoptotic cells by measuring red fluorescence intensity by annexin V-FITC/PI staining based confocal microscopic analysis; assay type: functional, cell-based
[11] = Toxicity in C57 mouse assessed as reduction in heart weight at 12 mg/kg, ip administered twice a day for 3 days (reference value: 0.56g); assay type: organism-based; settings: in vivo, 72 h, time 3 day
[12] = system: Mus musculus; assay: Induction of NO release in C57 mouse at 4 mg/kg, ip administered twice a day for 3 days; assay type: functional; settings: time 3 day
[13] = system: Mus musculus; assay: Protection against hypoxia-induced myocardial injury C57 mouse model assessed as cellular arrangement disorder at 12 mg/kg, ip administered twice a day for 2 days by H and E staining based analysis; assay type: functional, organism-based; settings: time 2.0 day
[14] = system: Mus musculus; assay: Vasodilation activity against hypoxia-induced myocardial injury C57 mouse model assessed as vascular obstruction areas at 12 mg/kg, ip administered twice a day for 3 days; assay type: functional, organism-based; settings: time 3.0 day
[15] = Toxicity in C57 mouse assessed as ratio of heart weight to body weight at 4 mg/kg IG administered twice a day for 3 days; assay type: organism-based; settings: in vivo, po, 72 h, time 3 day
[16] = Stability of compound in PBS at pH 7.4 by HPLC analysis; assay type: physicochemical; settings: buffer
[17] = system: H9c2; assay: Induction of NO release in rat H9c2 cells at 5 to 10 uM under hypoxia condition by griess reagent based assay; assay type: functional, cell-based; settings: dose 5-10 µM
[18] = system: H9c2; assay: Induction of NO release in rat H9c2 cells at 10 uM under hypoxia condition by DAF-FM fluorescence probe based spectroscopic assay; assay type: functional, cell-based
[19] = system: H9c2; assay: Recovery of myocardial cell viability in rat H9c2 cells under hypoxia condition by CCK-8 assay; assay type: functional, cell-based; settings: dose 10.0 µM
[20] = system: H9c2; assay: Recovery of myocardial cell viability in rat H9c2 cells at 0.01 to 1 uM under hypoxia condition by CCK-8 assay; assay type: functional, cell-based; settings: dose 0.01-1 µM
[21] = system: H9c2; assay: Downregulation of ACE expression in rat H9c2 cells at 5 to 10 uM by Western blot analysis; assay type: functional, cell-based; settings: dose 5-10 µM
[22] = system: H9c2; assay: Downregulation of ACE expression in rat H9c2 cells at 5 uM by Western blot analysis; assay type: functional, cell-based
[23] = system: H9c2; assay: Upregulation of TSC2-p expression in rat H9c2 cells at 5 to 10 uM by Western blot analysis; assay type: functional, cell-based; settings: dose 5-10 µM
[24] = system: H9c2; assay: Downregulation of mTORC1 expression in rat H9c2 cells at 5 to 10 uM by Western blot analysis; assay type: functional, cell-based; settings: dose 5-10 µM
[25] = system: H9c2; assay: Downregulation of mTORC1 expression in rat H9c2 cells at 5 uM by Western blot analysis; assay type: functional, cell-based
[26] = Toxicity in C57 mouse assessed as increase in cardiac swelling at 4 mg/kg, ip administered twice a day for 3 days; assay type: organism-based; settings: in vivo, 72 h, time 3 day
[27] = Toxicity in C57 mouse assessed as increase in cardiac swelling at 12 mg/kg, ip administered twice a day for 3 days; assay type: organism-based; settings: in vivo, 72 h, time 3 day
[28] = Toxicity in C57 mouse assessed as reduction in heart weight at low dose administered twice a day for 3 days (reference value: 0.56g); settings: in vivo, 72 h, time 3 day
[29] = Toxicity in C57 mouse assessed as reduction in heart weight at high dose administered twice a day for 3 days (reference value: 0.56g); settings: in vivo, 72 h, time 3 day
[30] = system: Mus musculus; assay: Induction of NO release in C57 mouse at 4 to 12 mg/kg, ip administered twice a day for 3 days; assay type: functional, organism-based; settings: dose 4-12 mg/kg, time 3.0 day
[31] = system: Mus musculus; assay: Protection against hypoxia-induced myocardial injury ip dosed C57 mouse model assessed as cellular arrangement disorder at low dose administered twice a day for 2 days by H and E staining based analysis; assay type: functional, organism-based; settings: time 2.0 day
[32] = system: Mus musculus; assay: Vasodilation activity against hypoxia-induced myocardial injury ip dosed C57 mouse model assessed as vascular obstruction areas low dose administered twice a day for 3 days; assay type: functional, organism-based; settings: time 3.0 day
[33] = system: Mus musculus; assay: Vasodilation activity against hypoxia-induced myocardial injury ip dosed C57 mouse model assessed as vascular obstruction areas high dose administered twice a day for 3 days; assay type: functional, organism-based; settings: time 3.0 day
[34] = system: Mus musculus; assay: Protection against hypoxia-induced myocardial injury ip dosed C57 mouse model assessed as collagen fiber proliferation at low dose administered twice a day for 3 days by masson staining based analysis; assay type: functional, organism-based; settings: time 3.0 day
[35] = system: H9c2; assay: Induction of NO release in rat H9c2 cells at 5 to 15 uM under hypoxia condition by griess reagent based assay; assay type: functional, cell-based; settings: dose 5-15 µM
[36] = system: H9c2; assay: Induction of NO release in rat H9c2 cells at 10 uM measured at 4 hrs under normoxia condition by griess reagent based assay; assay type: functional
[37] = system: H9c2; assay: Induction of NO release in rat H9c2 cells at 10 uM measured at 4 hrs under hypoxia condition by griess reagent based assay; assay type: functional, cell-based
[38] = system: H9c2; assay: Effect on ACE expression in rat H9c2 cells at 1 uM by Western blot analysis; assay type: functional, cell-based
[39] = system: H9c2; assay: Effect on TSP1 expression in rat H9c2 cells at 10 uM by Western blot analysis; assay type: functional, cell-based
[40] = system: H9c2; assay: Effect on TSC2-p expression in rat H9c2 cells by Western blot analysis; assay type: functional, cell-based; settings: dose 0.01-1 µM
[41] = system: Mus musculus; assay: Protection against hypoxia-induced myocardial injury ip dosed C57 mouse model assessed as cellular arrangement disorder at high dose administered twice a day for 2 days by H and E staining based analysis; assay type: functional, organism-based; settings: time 2.0 day
[42] = system: Mus musculus; assay: Protection against hypoxia-induced myocardial injury ip dosed C57 mouse model assessed as downregulation of ACE expression in heart at low dose administered twice a day for 3 days by immunohistochemistry analysis; assay type: functional, organism-based; settings: time 3.0 day
[43] = system: Mus musculus; assay: Protection against hypoxia-induced myocardial injury ip dosed C57 mouse model assessed as downregulation of ACE expression in heart at high dose administered twice a day for 3 days by immunohistochemistry analysis; assay type: functional, organism-based; settings: time 3.0 day
[44] = system: Mus musculus; assay: Protection against hypoxia-induced myocardial injury ip dosed C57 mouse model assessed as downregulation of mTORC1 expression in heart at low dose administered twice a day for 3 days by immunohistochemistry analysis; assay type: functional, organism-based; settings: time 3.0 day
[45] = system: Mus musculus; assay: Protection against hypoxia-induced myocardial injury ip dosed C57 mouse model assessed as downregulation of mTORC1 expression in heart at high dose administered twice a day for 3 days by immunohistochemistry analysis; assay type: functional, organism-based; settings: time 3.0 day
[46] = Toxicity in C57 mouse assessed as increase in body weight at 4 to 12 mg/kg IG administered twice a day for 3 days; assay type: organism-based; settings: in vivo, po, 72 h, dose 4-12 mg/kg, time 3 day
[47] = Toxicity in C57 mouse assessed as ratio of heart weight to body weight at 4 to 12 mg/kg IG administered twice a day for 3 days; assay type: organism-based; settings: in vivo, po, 72 h, dose 4-12 mg/kg, time 3 day
[48] = system: Mus musculus; assay: Protection against hypoxia-induced myocardial injury IG dosed C57 mouse model assessed as collagen fiber proliferation at low dose administered twice a day for 3 days by masson staining based analysis; assay type: functional, organism-based; settings: time 3.0 day
[49] = system: Mus musculus; assay: Protection against hypoxia-induced myocardial injury C57 mouse model assessed as reduction in collagen fiber proliferation at 12 mg/kg, IG administered twice a day for 3 days by masson staining based analysis; assay type: functional, organism-based; settings: time 3.0 day
[50] = system: Mus musculus; assay: Protection against hypoxia-induced myocardial injury C57 mouse model assessed as downregulation of ACE expression in heart at 12 mg/kg, IG administered twice a day for 3 days by immunohistochemistry analysis; assay type: functional, organism-based; settings: time 3.0 day

CN(N=O)c1ccc(OC(=O)OCc2ccc(Br)cc2[N+](=O)[O-])cc1
Activity [1]: <2%

CN(N=O)c1ccc(OC(=O)OCc2ccc(Cl)cc2[N+](=O)[O-])cc1
Activity [1]: <2%

Cc1ccc([N+](=O)[O-])c(COC(=O)Oc2ccc(N(C)N=O)cc2)c1
Activity [1]: <2%

Cc1ccc(COC(=O)Oc2ccc(N(C)N=O)cc2)c([N+](=O)[O-])c1
Activity [1]: <2%

CN(N=O)c1ccc(OC(=O)OCc2cc(Cl)ccc2[N+](=O)[O-])cc1
Activity [1]: <2%

O=[N+]([O-])O[C@H]1CO[C@H]2[C@@H]1OC[C@H]2O[N+](=O)[O-] [ISOSORBIDE DINITRATE]
Activity [1]: 36.89% | Activity [2]: 27.41% | Activity [3]: Dose-Dependent Effect | Activity [4]: Active | Activity [5]: ~30% | Activity [6]: Non-Toxic | Activity [7]: Active | Activity [8]: 28.7 nmol | Activity [9]: Non-Toxic | Activity [10]: Active | Activity [11]: 0.51 g | Activity [12]: 54% | Activity [13]: Active | Activity [14]: inactive | Ratio [15]: 0.59

CN(N=O)c1ccc(OC(=O)OCc2ccc([N+](=O)[O-])cc2)cc1
Stability [16]: 0.41% | Activity [1]: <2% | Activity [2]: 24.38% | Activity [17]: Active | Activity [18]: Active | Activity [6]: Non-Toxic | Activity [7]: Active | Activity [19]: Dose-Dependent Effect | Activity [20]: Active | Activity [8]: 37.5 nmol | Activity [9]: Non-Toxic | Activity [10]: Active | Activity [21]: Active | Activity [22]: inactive | Activity [23]: Active | Activity [24]: Active | Activity [25]: inactive | Activity [26]: Non-Toxic | Activity [27]: Toxic | Activity [28]: 0.57 g | Activity [29]: 0.48 g | Activity [30]: Active | Activity [31]: Active | Activity [32]: Active | Activity [33]: Active | Activity [34]: inactive

CN(N=O)c1ccc(OC(=O)OCc2ccc([N+](=O)[O-])cc2Cl)cc1
Activity [1]: <2% | Activity [2]: >20%

CN(N=O)c1ccc(OC(=O)OCc2ccccc2[N+](=O)[O-])cc1
Activity [1]: <2% | Activity [2]: >20%

Cc1cc([N+](=O)[O-])ccc1COC(=O)Oc1ccc(N(C)N=O)cc1
Activity [1]: <2% | Activity [2]: 43.21% | Activity [17]: Active | Activity [35]: Active | Activity [18]: Active | Activity [4]: Active | Activity [36]: 0% | Activity [37]: Active | Activity [5]: 28% | Activity [6]: Non-Toxic | Activity [7]: Active | Activity [8]: 44 nmol | Activity [9]: Non-Toxic | Activity [10]: Active | Activity [21]: Active | Activity [23]: Active | Activity [38]: Active | Activity [39]: Active | Activity [40]: Dose-Dependent Effect | Activity [27]: Toxic | Activity [28]: 0.52 g | Activity [29]: 0.48 g | Activity [30]: Active | Activity [31]: Active | Activity [41]: Active | Activity [32]: Active | Activity [33]: Active | Activity [34]: Active | Activity [42]: Active | Activity [43]: Active | Activity [44]: Active | Activity [45]: Active | Activity [46]: Non-Toxic | Ratio [47]: 0.56 | Activity [48]: Active | Activity [49]: Active | Activity [50]: Active
